According to DBAASP:
In brackets after ≈: the same amount, converted by molar mass.

Experiments:
Assay in all cases: ≥ marks a high value that may be exact or a test limit, other limits are often not marked, values filed in µg/mL are converted to µM
Micrococcus luteus = test system: Micrococcus luteus
Pasteurella multocida = test system: Pasteurella multocida
Leuconostoc lactis = test system: Leuconostoc lactis
Escherichia coli = test system: Escherichia coli
Bacillus cereus = test system: Bacillus cereus
Streptococcus uberis = test system: Streptococcus uberis
Listeria innocua = test system: Listeria innocua
[1] = test system: Staphylococcus epidermidis
Staphylococcus aureus = test system: Staphylococcus aureus
[2] = test system: Staphylococcus aureus ATCC 6538
[3] = test system: Staphylococcus aureus ATCC 43300
[4] = test system: Escherichia coli ATCC 8739

| MIC (Micrococcus luteus) | MIC (Pasteurella multocida) | MIC (Leuconostoc lactis) | MIC (Escherichia coli) | MIC (Bacillus cereus) | MIC (Streptococcus uberis) | MIC (Listeria innocua) | MIC [1] | MIC (Staphylococcus aureus) | MIC [2] | MIC [3] | MIC [4] | Compound |
| --- | --- | --- | --- | --- | --- | --- | --- | --- | --- | --- | --- | --- |
| 0.58 µM (≈ 1.5 µg/mL) | 9.67 µM (≈ 25 µg/mL) | 9.67 µM (≈ 25 µg/mL) | 38.7 µM (≈ 100 µg/mL) | 19.3 µM (≈ 50 µg/mL) | ≥ 38.7 µM | ≥ 38.7 µM | ≥ 38.7 µM | 38.7 µM (≈ 100 µg/mL) | – | – | – | CC[C@H](C)[C@H](NC(=O)[C@@H](NC(=O)[C@@H]1CCCN1C(=O)[C@@H](NC(=O)[C@@H](NC(=O)[C@H](Cc1cnc[nH]1)NC(=O)[C@@H]1CCCN1C(=O)[C@H](CC(C)C)NC(=O)[C@@H](NC(=O)[C@H](Cc1cnc[nH]1)NC(=O)[C@H](CCC(N)=O)NC(=O)[C@H](C)NC(=O)[C@@H](NC(=O)[C@H](CO)NC(=O)CNC(=O)[C@H](CC(C)C)NC(=O)[C@@H](NC(=O)[C@H](CO)NC(=O)[C@H](CC(C)C)NC(=O)[C@H](CC(C)C)NC(=O)CN)C(C)C)C(C)C)C(C)C)C(C)C)C(C)C)C(C)C)C(=O)N[C@@H](C)C(=O)N[C@@H](CCC(=O)O)C(=O)N[C@@H](Cc1cnc[nH]1)C(=O)N[C@@H](CC(C)C)C(N)=O [GLLSVLGSVAQHVLPHVVPVIAEHL] |
| – | – | – | – | – | – | – | – | – | 6.3 µM (≈ 27.2 µg/mL) | 100 µM (≈ 432 µg/mL) | 6.3 µM (≈ 27.2 µg/mL) | CC[C@H](C)[C@H](NC(=O)[C@H](CCCCN)NC(=O)[C@@H](NC(=O)[C@H](CO)NC(=O)[C@H](CC(N)=O)NC(=O)[C@H](Cc1c[nH]c2ccccc12)NC(=O)[C@H](CC(C)C)NC(=O)CN)[C@@H](C)CC)C(=O)N[C@@H](C)C(=O)NCC(=O)N[C@@H](CCCCN)C(=O)N[C@@H](CCCCN)C(=O)N[C@@H](CC(C)C)C(=O)N[C@@H](Cc1ccccc1)C(=O)N[C@H](C(=O)N[C@@H](CC(N)=O)C(=O)N[C@H](C(=O)N[C@@H](CC(C)C)C(=O)N[C@@H](CC(=O)O)C(=O)N[C@@H](CCCCN)C(=O)N[C@H](C(=O)N[C@@H](CCCN=C(N)N)C(=O)N[C@H]1CSSC[C@@H](C(=O)N[C@@H](CCCCN)C(=O)N[C@H](C(=O)N[C@@H](CO)C(=O)N2CCC[C@H]2C(=O)N[C@@H](CC(=O)O)C(=O)N[C@H](C(=O)N[C@@H](CCC(=O)O)C(=O)N[C@@H](Cc2ccc(O)cc2)C(=O)N[C@@H](Cc2cnc[nH]2)C(=O)N[C@@H](CCCCN)C(=O)O)C(C)C)[C@@H](C)O)NC(=O)CNC(=O)CNC(=O)[C@H](C)NC(=O)[C@H](C(C)C)NC(=O)[C@H](CCCCN)NC1=O)[C@@H](C)CC)C(C)C)C(C)C [GLWNSIKIAGKKLFVNVLDKIRCKVAGGCKTSPDVEYHK] |
| 6.73 µM (≈ 12 µg/mL) | ≥ 56 µM | 1.68 µM (≈ 3 µg/mL) | > 56 µM | 14 µM (≈ 25 µg/mL) | 14 µM (≈ 25 µg/mL) | 14 µM (≈ 25 µg/mL) | 6.73 µM (≈ 12 µg/mL) | 14 µM (≈ 25 µg/mL) | – | – | – | CC[C@H](C)[C@H](NC(=O)[C@@H](NC(=O)CN)C(C)C)C(=O)N[C@@H](C)C(=O)N[C@@H](C)C(=O)N[C@@H](C)C(=O)N[C@@H](CCCCN)C(=O)N[C@@H](CCCCN)C(=O)N[C@H](C(=O)N[C@H](C(=O)N[C@@H](CC(N)=O)C(=O)N[C@H](C(=O)N[C@@H](CC(C)C)C(=O)N[C@@H](CCCCN)C(=O)N[C@@H](CC(N)=O)C(=O)N[C@@H](CC(C)C)C(=O)N[C@@H](Cc1ccccc1)C(N)=O)C(C)C)C(C)C)C(C)C [GVIAAAKKVVNVLKNLF] |
| ≥ 61.5 µM | ≥ 61.5 µM | 7.38 µM (≈ 12 µg/mL) | 61.5 µM (≈ 99.9 µg/mL) | ≥ 61.5 µM | ≥ 61.5 µM | 15.4 µM (≈ 25 µg/mL) | 15.4 µM (≈ 25 µg/mL) | 30.7 µM (≈ 50 µg/mL) | – | – | – | CC[C@H](C)[C@H](NC(=O)[C@@H](NC(=O)[C@H](C)NC(=O)[C@H](C)NC(=O)[C@@H](NC(=O)[C@H](CCCCN)NC(=O)[C@H](CCCCN)NC(=O)[C@@H](NC(=O)[C@@H](NC(=O)[C@H](C)NC(=O)[C@H](Cc1ccccc1)NC(=O)[C@H](CC(C)C)NC(=O)[C@@H](N)CCCCN)C(C)C)[C@@H](C)CC)C(C)C)C(C)C)C(=O)NCC(=O)NCC(=O)N[C@@H](CC(C)C)C(N)=O [KLFAVIKKVAAVIGGL] |
